From PubChem BioAssay AID1996 come the findings set out here.

The structures appear in SMILES notation. ≈ marks a conversion by molar mass, not a printed value. A value given as a limit tells only on which side of the number the result lay.

For the data set the following is noted: buffer; pH 7.4; 200.0 µM.
As to `CC(C)(C)Nc1nc2ccc([N+](=O)[O-])cc2o1`, the solubility (kinetic) (commonly solubility judged after dilution from a stock solution rather than from solid) came to 31.9 µg/mL (≈ 136 µM). The same measure for `CC1C(=O)Nc2ccc(S(=O)(=O)N3CCCCCC3)cc21` (stereo not given): over 46.3 µg/mL; for `FC(F)(F)c1ccnc(NCc2ccco2)n1`: 9.2 µg/mL (≈ 37.8 µM); for `Cc1cccnc1NC1CCCCC1`: 8.1 µg/mL (≈ 42.6 µM).

`CC12COC3(C(=O)Nc4ccccc4F)CC1CCC32C` (stereo not given) had a solubility (kinetic) of 9.1 µg/mL (≈ 31.4 µM). `O=C1CSC(c2cccc(O)c2)N1Cc1ccccc1` (stereo not given) had a solubility (kinetic) of over 42.8 µg/mL. With `Fc1ccc(NC(=S)Nc2cccc3ccccc23)cc1` the figure was 16.7 µg/mL (≈ 56.3 µM); with `C=C1CCc2c([nH]c3ccc(OCC(C)C)cc23)C1=O`, 0.8 µg/mL (≈ 2.97 µM); with `CN(C)S(=O)(=O)c1cccc(COC(=O)c2cnccn2)c1`, 41.7 µg/mL (≈ 130 µM).

In the case of `O=c1[nH]c2ccccc2n2c(=S)[nH]nc12`, the kinetic solubility is over 32.7 µg/mL. Turning to `Nc1ncccc1OCc1ccc(Br)cc1`, the solubility (kinetic) is 37.3 µg/mL (≈ 134 µM).

`CCOC(=O)Cn1cnc2scc(-c3ccc(C)cc3)c2c1=O`: the kinetic solubility amounted to 38.2 µg/mL (≈ 116 µM). `CCCCN1C(=O)C(=O)N(CC(=O)Nc2ccccc2C(C)=O)C1=O` had a solubility (kinetic) of over 51.8 µg/mL.

Compound `C=CCC1Cc2c(cccc2[N+](=O)[O-])C(CC=C)N1` (stereo not given) returned a kinetic solubility of 30.5 µg/mL (≈ 118 µM).

For `O=C(Nc1ccc(C(F)(F)F)cc1)OC1CN2CCC1CC2` (stereo not given), the solubility (kinetic) was determined as 45.1 µg/mL (≈ 143 µM). In turn, `COc1cccc(CC(=O)Nc2ccc(S(=O)(=O)N3CCCCC3)cc2)c1` showed a solubility (kinetic) of 10.1 µg/mL (≈ 26 µM).

Consider `CC(OC(=O)C1=COCCO1)C(=O)NC1CCCCC1C` (stereo not given), for which the kinetic solubility is over 44.6 µg/mL. With `Cc1ccc(NC(=O)CCC(=O)c2cccs2)c(O)c1` the figure was 24.2 µg/mL (≈ 83.6 µM). In turn, `CC(SCc1ccccc1)C(=O)Nc1ccccc1` (stereo not given) registered a solubility (kinetic) of 32.1 µg/mL (≈ 118 µM). The solubility kinetic values of the last two compounds are within 1.5-fold of each other. As for `O=C(/C=C/c1ccc(F)cc1)OCC(=O)c1ccc[nH]1`, the kinetic solubility was determined as 2.6 µg/mL (≈ 9.51 µM). The same measure for `Cc1cccc(NC(=O)Cn2cc(C=O)c3ccccc32)c1`: 0.9 µg/mL (≈ 3.08 µM); for `Cc1ccc2c(CN3CCCCC3CCO)cc(=O)oc2c1` (stereo not given): 39.4 µg/mL (≈ 131 µM). Compound `O=C(NC1CC1)c1c(O)c2ccccc2[nH]c1=O` had a solubility (kinetic) of 2.8 µg/mL (≈ 11.5 µM). `COc1cc(Nc2ncnc(N)n2)cc(OC)c1` gave a kinetic solubility of over 37.1 µg/mL. `COc1ccc(OCC(=O)Nc2nccs2)cc1` came in with a kinetic solubility of 39.1 µg/mL (≈ 148 µM). Consider `Cc1nc2ccccn2c1C(=O)NNC(=O)Nc1ccccc1`, for which the kinetic solubility is over 46.4 µg/mL. With `CN(CCC#N)C(=O)COC(=O)c1ccc2c(c1)C(=O)N(C1CCCCC1)C2=O` the figure was 16.1 µg/mL (≈ 40.5 µM); with `CSc1ccc(CNCC2CCCO2)cc1.Cl` (stereo not given), 37.1 µg/mL; with `Cc1ccc(O)c(Nc2c3ccccc3nc3ccccc23)c1`, 1.5 µg/mL (≈ 4.99 µM).

Take `NS(=O)(=O)c1ccc(CCNC(=O)COC(=O)c2ccc([N+](=O)[O-])o2)cc1`: the solubility (kinetic) is over 59.6 µg/mL.

With `C=CCOc1nc2c(c(=O)n(C)c(=O)n2C)n1Cc1ccccc1`, the kinetic solubility is 8.2 µg/mL (≈ 25.1 µM). As for `COc1cccc(CNC(=O)CCCC(=O)NC(C)CCc2ccccc2)c1` (stereo not given), the solubility (kinetic) was over 57.4 µg/mL.

In turn, `COc1ccc(C(O)Cn2cc([N+](=O)[O-])nc2C)cc1` (stereo not given) displayed a solubility (kinetic) of 39 µg/mL (≈ 141 µM). For `CN(Cc1nc2ccccc2n1C)C(=O)c1ccco1`, the kinetic solubility came out at 39.9 µg/mL (≈ 148 µM). This solubility kinetic and that of the compound before are within 1.5-fold of each other. `CC(NC(=O)c1ccco1)c1nc(-c2ccccc2Cl)no1` (stereo not given) had a solubility (kinetic) of over 47.7 µg/mL. `O=C(NCC1CCCO1)c1cncc(Br)c1` (stereo not given) gave a kinetic solubility of over 42.8 µg/mL. `O=C(c1cc(-c2ccc(O)cc2)on1)N1CCOCC1` showed a solubility (kinetic) of over 41.1 µg/mL. The same measure for `Cc1ccc(C(=O)Nc2ccc3c(c2)OCCO3)cc1S(=O)(=O)N1CCOCC1`: 41.6 µg/mL (≈ 99.4 µM); for `O=C(CN1C(=O)NC2(CCCC2)C1=O)OCCOc1ccccc1`: over 49.9 µg/mL. `COc1ccc(N(C)S(=O)(=O)c2cccc(C(=O)OCC(=O)N3CC(C)CC(C)C3)c2)cc1` (stereo not given): the solubility (kinetic) was found to be 7.3 µg/mL (≈ 15.4 µM). Regarding `CNC(=O)c1sc(NCc2ccccc2OC)nc1C`, the solubility (kinetic) was over 43.7 µg/mL. Compound `C=CCSC1=NN2CCS(=O)(=O)N=C2S1` registered a solubility (kinetic) of over 39.5 µg/mL. In turn, `O=C(Nc1ncccc1O)c1ccc2c(c1)OCO2` showed a solubility (kinetic) of over 38.7 µg/mL. With `NS(=O)(=O)c1ccc(NC(=O)COc2ccc(Cl)cc2)cc1`, the solubility (kinetic) stood at 2.5 µg/mL (≈ 7.34 µM). `O=C1Nc2ccccc2O/C1=C\c1ccccc1Br` gave a solubility (kinetic) of 3.3 µg/mL (≈ 10.4 µM). With `CCn1c(=O)c([N+](=O)[O-])c(NCCCn2ccnc2)c2ccccc21` the figure was over 51.2 µg/mL. As to `Cc1ccc(Cn2c(=O)c3c(ncn3C)n(C)c2=O)cc1`, the kinetic solubility is over 42.6 µg/mL.

In the case of `O=C(Nc1cccnc1)OCc1ccccc1`, the solubility (kinetic) was 23 µg/mL (≈ 101 µM).

Compound `O=C(CNS(=O)(=O)c1ccccc1)NCC(=O)N1CCCCC1` yielded a solubility (kinetic) of over 50.9 µg/mL.

`O=C(NCc1cccnc1)Nc1ccccc1Cl`: the kinetic solubility is over 39.3 µg/mL.

With `CCOC(=O)c1c(C)n(C)c2c1cc(OC(C)=O)c1ccccc12`, the kinetic solubility was under 0.7 µg/mL. Turning to `Cc1cccc(NC(=O)C(Cc2ccccc2)n2cccc2)c1` (stereo not given), the kinetic solubility worked out at 11.6 µg/mL (≈ 38.1 µM). As for `COc1cc(NC(=S)N2CCN(C)CC2)cc(OC)c1`, the kinetic solubility was over 44.3 µg/mL.

As for `CCOC(=O)c1ccoc1CN1CCN(S(=O)(=O)c2ccc(C)c(C)c2)CC1`, the solubility (kinetic) stood at 32.8 µg/mL (≈ 80.7 µM). As to `COc1cccc(C(=O)OCC(=O)NCCCc2ccccc2)c1`, the kinetic solubility was 12.1 µg/mL (≈ 37 µM). Regarding `O=C(NC(=S)NC1CCS(=O)(=O)C1)c1ccccc1` (stereo not given), the kinetic solubility is over 44.8 µg/mL. The compound `CN(C)NC(=S)NC1CC2CCC1C2` (stereo not given) displayed a solubility (kinetic) of over 32 µg/mL. With `CC(C)N(CCc1ccncc1)C(=S)Nc1cccc(Cl)c1` the figure was 43.2 µg/mL (≈ 129 µM); with `COc1cccc(-c2nc(=S)c3c(o2)CCCC3)c1`, 12.1 µg/mL (≈ 44.3 µM); with `CC1C(=O)N2CCCc3cc(NC(=O)C4CCCCC4)cc1c32` (stereo not given), over 46.9 µg/mL. On to `Fc1ccccc1-c1nc2nc3ccccc3nc2n1CC1CCCO1` (stereo not given), for which the solubility (kinetic) was over 52.3 µg/mL. Compound `Cc1cc(C)c2[nH]c(C(=O)Nc3ccc(F)cc3Br)cc2c1` had a kinetic solubility of 4.2 µg/mL (≈ 11.6 µM). As to `O=C(NCc1nc2ccccc2[nH]1)c1ccccc1F`, the kinetic solubility was over 40.4 µg/mL. The same measure for `Cc1ccc2nc(-c3ccccc3C)oc(=O)c2c1`: under 0.5 µg/mL; for `O=c1cc(-c2ccc(Cl)cc2)oc(=O)[nH]1`: over 33.5 µg/mL; for `COc1cccc(C(=O)NCCNC(=O)c2cnccn2)c1`: 30.9 µg/mL (≈ 103 µM).

`COC(=O)CSc1nc2cc3c(cc2cc1C)OCO3` had a solubility (kinetic) of 1.7 µg/mL (≈ 5.84 µM). `Cc1nc2sccn2c(=O)c1CCN1CCC(=C(c2ccc(F)cc2)c2ccc(F)cc2)CC1`: the solubility (kinetic) came out at 12.2 µg/mL (≈ 25.5 µM).

As for `NS(=O)(=O)c1ccc(NC(=O)Nc2ccc(S(N)(=O)=O)cc2)cc1`, the kinetic solubility came out at 9.7 µg/mL (≈ 26.2 µM). This solubility kinetic and that of the compound before are within 1.5-fold of each other. Turning to `COc1ccccc1NC(=O)c1ccc[n+]([O-])c1`, the solubility (kinetic) is over 36.6 µg/mL. For the compound `O=c1c2ccccc2ncn1-c1cccc(Br)c1`, the solubility (kinetic) worked out at 5.5 µg/mL (≈ 18.3 µM). Compound `O=C1Nc2ccccc2C1Cc1nc2ccccc2c(=O)n1-c1ccccc1` (stereo not given) showed a kinetic solubility of 55.1 µg/mL (≈ 150 µM). For `CC(NC(=O)CCSCc1ccccc1F)c1ccccc1` (stereo not given), the kinetic solubility turned out to be 44.5 µg/mL (≈ 140 µM). `Cc1ccc(Nc2c(-c3ccccc3O)nc3ncccn23)cc1`: the kinetic solubility was 0.7 µg/mL (≈ 2.21 µM). Compared with the last compound, the solubility kinetic is about 64-fold lower. As to `CC(C)C(C)NC(=O)COc1ccc(OCc2ccccc2)cc1` (stereo not given), the kinetic solubility is 1.9 µg/mL (≈ 5.8 µM).

`O=C(O)c1ccccc1C(=O)Nc1ccc(Oc2ccccc2)cc1`: the kinetic solubility was over 50 µg/mL. With `Cc1cc(C(=O)N2CCc3ccccc3C2)c(C)o1` the figure was over 38.3 µg/mL; with `COCCCNC(=O)C(C)N1c2cccc3cccc(c23)S1(=O)=O` (stereo not given), 50.2 µg/mL (≈ 144 µM).

The compound `CN(c1ccccc1)S(=O)(=O)c1cccc(C(=O)NCC(=O)Nc2ccc(F)c(F)c2F)c1` displayed a kinetic solubility of 5.3 µg/mL (≈ 11.1 µM). Against the preceding compound, the solubility kinetic is about 9.5-fold lower. With `Cc1cc(C)c(C)c(S(=O)(=O)N2CCSCC2)c1C` the figure was under 0.6 µg/mL; with `Cc1cccc(N2N=C(C(=O)O)CCC2=O)c1`, over 34.8 µg/mL; with `C(=C\c1ccccc1)/CSc1nc2ncccc2[nH]1`, 8.9 µg/mL (≈ 33.3 µM).

Consider `CCOc1cc(C(N)=O)cc(Cl)c1OCC`, for which the solubility (kinetic) was found to be 34.6 µg/mL (≈ 142 µM). With `Clc1nccc(NCc2ccccc2)n1` the figure was over 33 µg/mL; with `O=C(NCc1ccc(Cl)cc1)N1CCOCC1`, over 38.2 µg/mL. `O=C(c1ccc(Cl)cc1Cl)N1CCSCC1` yielded a solubility (kinetic) of over 41.4 µg/mL. In turn, `COc1cc(OC)cc(C(=O)Nc2cccc3nc(C)ccc23)c1` gave a solubility (kinetic) of 2.9 µg/mL (≈ 9 µM). Compound `Cc1nc2ccccc2c(=O)n1-c1cccc([N+](=O)[O-])c1` yielded a solubility (kinetic) of 36.4 µg/mL (≈ 129 µM). For the compound `O=C(CN1C(=O)c2ccccc2S1(=O)=O)Nc1ccc([N+](=O)[O-])cc1`, the kinetic solubility was found to be 6 µg/mL (≈ 16.6 µM). As for `NS(=O)(=O)c1ccc(CNC(=O)Cc2ccccc2[N+](=O)[O-])cc1`, the solubility (kinetic) came out at 50.1 µg/mL (≈ 143 µM). Compared with the last compound, the solubility kinetic is about 8.3-fold higher. For the compound `COc1ccccc1-n1c(-c2ccc(C)cc2)nc2ccccc2c1=O`, the solubility (kinetic) was 3.3 µg/mL (≈ 9.64 µM). Compound `O=C(CCc1ccccc1)NC1CCS(=O)(=O)C1` (stereo not given) registered a kinetic solubility of over 40.1 µg/mL. With `CN(CCC#N)C(=O)COc1ccc(Br)cc1Cl` the figure was over 49.7 µg/mL; with `CC1=CC(C)(C)[N+](C)(C)c2ccccc21.[I-]`, 41 µg/mL. Compound `S=C(NCc1ccccc1)N1CCN(C2CCCCC2)CC1` returned a kinetic solubility of over 47.6 µg/mL. In the case of `Cc1ccc(NC(=O)CN(CCc2ccccc2)S(C)(=O)=O)cc1`, the kinetic solubility is 51.6 µg/mL (≈ 149 µM).

As for `CN1C(=O)NC(c2ccccc2[N+](=O)[O-])C2=C1CCCC2=O` (stereo not given), the kinetic solubility was over 45.2 µg/mL. `O=C(NC(=S)Nc1ccccc1)c1cccs1` returned a kinetic solubility of 1.4 µg/mL (≈ 5.34 µM).

Compound `Cc1c(NC(=O)C(C)C)cccc1-c1nc2ncccc2o1` registered a kinetic solubility of over 44.3 µg/mL. On to `CS(=O)(=O)Nc1ccccc1C(=O)OCC(=O)NCc1cccs1`, for which the solubility (kinetic) was over 55.3 µg/mL. In the case of `CN(Cc1cnccn1)Cc1nc(Cc2cccc(F)c2)no1`, the kinetic solubility worked out at 46.3 µg/mL (≈ 148 µM). Turning to `CCN(CC)S(=O)(=O)c1ccc(NC(=O)c2ccc(N3CCCC3=O)cc2)cc1`, the solubility (kinetic) was 5 µg/mL (≈ 12 µM). In turn, `COc1ccc([N+](=O)[O-])cc1NC(=O)c1ccco1` returned a kinetic solubility of 4.3 µg/mL (≈ 16.4 µM).

`O=C(CSc1nnc(-c2ccccn2)o1)Nc1ccccc1` displayed a solubility (kinetic) of over 46.9 µg/mL.

In the case of `CC(C)(C)NC(=O)CSc1nc(-c2ccc(F)cc2)cs1`, the kinetic solubility was determined as 6.6 µg/mL (≈ 20.3 µM).
